Results on one compound are retold here after patent publication US20250177370A1, “METHOD FOR ALLEVIATING UTERINE LEIOMYOMA USING NICOTINAMIDE” (TAIPEI MEDICAL UNIVERSITY, priority 2023, published 2025).

Assay [1] relates to Eker rat uterine leiomyoma cell line ELT-3. In words: Crystal violet staining assay (area density, viable cells). In kind it is cell-based. The note with it: ELT-3 cells, 48 hours, vs control group, p<0.001. The protocol:
(§1) Eker rat uterine leiomyoma cell line ELT-3 was purchased from the American Type Culture Collection (ATCC, Manassas, Va., USA). The ELT-3 cells were grown in a 6 cm Petri dish containing Dulbecco's Modified Eagle's Medium (DMEM)/F12 [1:1 (v/v)] (Cassion, Cat. no. DFP29) supplemented with 10% fetal bovine serum (FBS, Corning Inc., Cat. no. 35-010-CV) and 1% antibiotic-antimycotic (Corning Inc., Cat. no. 30-004-CI). The ELT-3 cells were cultivated in an incubator at 37° C. with 5% CO2. Medium change was performed every two to three days. Cell passage was performed when the cultured cells reached 80% to 90% of confluence.
First, the ELT-3 cells prepared in section 1 of “General Experimental Materials” were divided into 3 groups, including a control group, and two experimental groups (i.e., experimental groups 1 and 2). Each group of the ELT-3 cells was seeded at a concentration of 1×10^5 cells/well into a respective well of 6-well culture plates containing 2 mL of DMEM/F12 supplemented with 10% FBS and 1% penicillin-streptomycin, followed by cultivation in an incubator (37° C., 5% CO2) for 24 hours.
(§2) Next, medium change was performed by adding a fresh culture medium supplemented with 1% FBS into the 6-well culture plate. […]
(§3) The data thus obtained were analyzed according to the procedures as described in section 1 of “General Procedures”.

For assay [2] the test system is unchanged. In words: Colony formation assay. The note with it: ELT-3 cells, 3 days treatment then 7 to 10 days, vs control group, p<0.05. Format: cell-based. The protocol:
as §1
First, the ELT-3 cells prepared in section 1 of “General Experimental Materials” were divided into 3 groups, including a control group, and two experimental groups (i.e., experimental groups 1 and 2). Each group of the ELT-3 cells was seeded at a concentration of 5×10^2 cells/well into a respective well of 6-well culture plates containing 2 mL of DMEM/F12 supplemented with 10% FBS and 1% penicillin-streptomycin, followed by cultivation in an incubator (37° C., 5% CO2) for 24 hours.
as §2, §3

The subject of assay [3] is alpha-smooth muscle actin (α-SMA). Put plainly: Western blotting of α-SMA in ELT-3 cells. Format: cell-based, rat. The note with it: 72 hours, normalized to GAPDH, vs control group. The protocol: (§4) First, the ELT-3 cells prepared in section 1 of “General Experimental Materials” were divided into 3 groups, including a control group, and two experimental groups (i.e., experimental groups 1 and 2). Each group of the ELT-3 cells was seeded at a concentration of 2×10^5 cells/well into a 10-cm Petri dish containing 2 mL of DMEM/F12 supplemented with 10% FBS and 1% penicillin-streptomycin, followed by cultivation in an incubator (37° C., 5% CO2) overnight.
(§5) Next, medium change was performed by adding a fresh culture medium supplemented with 1% FBS into the 10-cm Petri dish, followed by cultivation in an incubator (37° C., 5% CO2) for 24 hours. […]
(§6) After cultivation in an incubator (37° C., 5% CO2) for 72 hours, each of the cell cultures was mixed with 100 μL of a RIPA lysis buffer (BIOMAN, Cat. no. 20121701) containing protease inhibitor cocktail (Roche, Cat. no. 4693159001). […] The protein concentration in the total protein sample was determined using bicinchoninic acid (BCA) assay kit (T-Pro Biotechnology, Cat. no. JB04-D001) in accordance with the manufacturer's instructions. […]
(§7) Subsequently, ImageJ software was used for semi-quantitatively calculating the corresponding protein expression level. […]
(§8) The relative expression level was calculated using the following Equation (1): […]
as §3
Background: Immunoblotting shows a protein as a band on a membrane.

A further assay concerns fibronectin. Put plainly: Western blotting of ECM protein fibronectin in ELT-3 cells. Format: cell-based, rat. The conditions noted are these: 72 hours, normalized to GAPDH, vs control group. The protocol: as §4, §5, §6, §7, §8, §3
Assay [4] deals with collagen type I alpha 1 chain (COL1A1). In words: Western blotting of COL1A1 in ELT-3 cells. Format: cell-based, rat. The note with it: 72 hours, normalized to GAPDH, vs control group. The protocol:
as §4, §5, §6, §7, §8, §3

Another assay has as its system primary melanocytes. The note with it: primary melanocytes with ultraviolet (UV) radiation-induced DNA damage; Thompson B. C. et al. (2014); cited from earlier work.
Where [5] appears, read: 20 mM nicotinamide (experimental group 1).
The mark [6] stands for this setting: 50 mM nicotinamide (experimental group 2).

Regarding `NC(=O)c1cccnc1` [nicotinamide], the area density entry in assay [1] (setting [5]) and in assay [1] (setting [6]) was “significant decrease” throughout. Besides, the colony density result in assay [2] (setting [5]) and in assay [2] (setting [6]) was “significant decrease” in each case. The “relative expression level of α-SMA” value in assay [3] (20 mM nicotinamide) and in assay [3] (50 mM nicotinamide) was “significantly decreased” in each case. For the same compound, the “relative expression level of fibronectin” value with fibronectin (20 mM nicotinamide) and in the assay with fibronectin (50 mM nicotinamide) was “significantly decreased” each time. Further, the “relative expression level of COL1A1” value in assay [4] (20 mM nicotinamide) and in assay [4] (50 mM nicotinamide) was “significantly decreased” throughout. Also, the DNA repair entry in the assay with primary melanocytes is given as “enhances DNA repair”.
